Test [1] addresses TRAF2 and NCK-interacting protein kinase (Homo sapiens, UniProt Q9UKE5).
The target of test [2] is T1, Mitogen-activated protein kinase 12 (Homo sapiens, UniProt P53778).
T1 sequence (P53778 whole entry): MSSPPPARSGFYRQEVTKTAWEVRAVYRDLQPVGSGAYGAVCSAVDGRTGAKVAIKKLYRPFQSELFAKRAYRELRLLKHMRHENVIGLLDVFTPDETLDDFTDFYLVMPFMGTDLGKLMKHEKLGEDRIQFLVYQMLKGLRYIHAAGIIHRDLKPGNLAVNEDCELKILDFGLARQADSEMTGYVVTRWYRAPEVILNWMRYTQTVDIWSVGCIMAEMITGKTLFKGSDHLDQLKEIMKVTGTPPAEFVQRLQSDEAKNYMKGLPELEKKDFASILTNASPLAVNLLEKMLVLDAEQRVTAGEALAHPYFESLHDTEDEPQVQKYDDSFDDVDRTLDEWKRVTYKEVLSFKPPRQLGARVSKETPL

Test [3] concerns the target Dual specificity protein kinase CLK4 (Homo sapiens, UniProt Q9HAZ1).
The target in test [4] is T2, Ephrin type-B receptor 1 (Homo sapiens, UniProt P54762).
T2 sequence (P54762 whole entry): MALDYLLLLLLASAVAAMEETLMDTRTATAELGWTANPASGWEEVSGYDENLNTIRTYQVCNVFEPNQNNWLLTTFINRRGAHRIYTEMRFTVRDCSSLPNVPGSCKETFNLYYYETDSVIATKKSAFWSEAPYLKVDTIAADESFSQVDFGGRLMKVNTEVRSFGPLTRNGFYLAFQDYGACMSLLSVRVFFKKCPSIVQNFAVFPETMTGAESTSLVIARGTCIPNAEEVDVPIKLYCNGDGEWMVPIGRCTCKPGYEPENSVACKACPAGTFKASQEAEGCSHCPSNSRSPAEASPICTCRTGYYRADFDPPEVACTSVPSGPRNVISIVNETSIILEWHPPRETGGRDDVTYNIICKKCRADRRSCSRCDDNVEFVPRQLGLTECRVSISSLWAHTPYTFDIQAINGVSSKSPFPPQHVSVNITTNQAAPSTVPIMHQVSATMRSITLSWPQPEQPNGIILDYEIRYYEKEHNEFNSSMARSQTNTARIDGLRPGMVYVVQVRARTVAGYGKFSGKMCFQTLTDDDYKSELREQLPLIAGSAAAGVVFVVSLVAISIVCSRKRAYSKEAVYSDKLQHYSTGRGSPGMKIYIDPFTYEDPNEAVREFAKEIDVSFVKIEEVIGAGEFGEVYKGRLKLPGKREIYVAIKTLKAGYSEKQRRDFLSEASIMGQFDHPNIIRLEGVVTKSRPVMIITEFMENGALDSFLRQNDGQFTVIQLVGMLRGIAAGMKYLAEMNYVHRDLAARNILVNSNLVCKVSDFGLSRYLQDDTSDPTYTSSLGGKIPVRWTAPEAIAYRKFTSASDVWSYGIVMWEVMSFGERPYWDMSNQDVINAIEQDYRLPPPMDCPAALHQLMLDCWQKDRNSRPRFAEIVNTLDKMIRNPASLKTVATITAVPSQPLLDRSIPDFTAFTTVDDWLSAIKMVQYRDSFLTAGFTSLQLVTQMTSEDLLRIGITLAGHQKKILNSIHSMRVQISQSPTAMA

Test [5] concerns the target Tyrosine-protein kinase FRK (Homo sapiens, UniProt P42685).
Test [6] deals with Mitogen-activated protein kinase 8 (Homo sapiens, UniProt P45983).
The target in test [7] is Cyclin-dependent kinase 2 (Homo sapiens, UniProt P24941).
For test [8], the target named is Mitogen-activated protein kinase 10 (Homo sapiens, UniProt P53779).
Chain of Mitogen-activated protein kinase 10 (P53779 whole entry, canonical isoform): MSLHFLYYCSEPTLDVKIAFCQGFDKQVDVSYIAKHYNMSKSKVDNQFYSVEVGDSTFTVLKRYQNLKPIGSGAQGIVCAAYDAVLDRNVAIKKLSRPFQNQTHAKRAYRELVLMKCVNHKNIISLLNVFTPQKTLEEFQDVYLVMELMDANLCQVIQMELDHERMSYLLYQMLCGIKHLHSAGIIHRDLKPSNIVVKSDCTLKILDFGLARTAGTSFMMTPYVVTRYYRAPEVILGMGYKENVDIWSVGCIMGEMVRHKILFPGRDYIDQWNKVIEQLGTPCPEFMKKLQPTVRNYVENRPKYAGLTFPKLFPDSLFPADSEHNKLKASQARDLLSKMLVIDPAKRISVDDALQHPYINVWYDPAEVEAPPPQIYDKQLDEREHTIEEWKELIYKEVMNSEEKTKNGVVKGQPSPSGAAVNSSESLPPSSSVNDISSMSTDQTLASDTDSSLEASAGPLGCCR
Test [9] addresses T3, Casein kinase I isoform epsilon (Homo sapiens, UniProt P49674).
Test [10] deals with Death-associated protein kinase 2 (Homo sapiens, UniProt Q9UIK4).
Chain of Death-associated protein kinase 2 (Q9UIK4 whole entry): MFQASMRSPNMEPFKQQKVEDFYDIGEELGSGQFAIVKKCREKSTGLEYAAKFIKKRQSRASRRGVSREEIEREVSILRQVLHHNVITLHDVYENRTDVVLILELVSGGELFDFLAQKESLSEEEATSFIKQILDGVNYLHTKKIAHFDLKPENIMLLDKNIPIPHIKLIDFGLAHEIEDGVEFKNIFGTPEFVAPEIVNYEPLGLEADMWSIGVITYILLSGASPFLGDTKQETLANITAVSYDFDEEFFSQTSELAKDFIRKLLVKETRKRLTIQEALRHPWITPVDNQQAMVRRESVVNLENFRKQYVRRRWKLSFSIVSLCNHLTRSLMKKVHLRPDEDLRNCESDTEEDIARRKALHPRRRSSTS
Test [11] concerns the target Calcium/calmodulin-dependent protein kinase type II subunit beta (Homo sapiens, UniProt Q13554).
For test [12], the target named is Fibroblast growth factor receptor 1 (Homo sapiens, UniProt P11362).
The target in test [13] is T4, Membrane-associated tyrosine- and threonine-specific cdc2-inhibitory kinase (Homo sapiens, UniProt Q99640).
T4 sequence (Q99640 whole entry): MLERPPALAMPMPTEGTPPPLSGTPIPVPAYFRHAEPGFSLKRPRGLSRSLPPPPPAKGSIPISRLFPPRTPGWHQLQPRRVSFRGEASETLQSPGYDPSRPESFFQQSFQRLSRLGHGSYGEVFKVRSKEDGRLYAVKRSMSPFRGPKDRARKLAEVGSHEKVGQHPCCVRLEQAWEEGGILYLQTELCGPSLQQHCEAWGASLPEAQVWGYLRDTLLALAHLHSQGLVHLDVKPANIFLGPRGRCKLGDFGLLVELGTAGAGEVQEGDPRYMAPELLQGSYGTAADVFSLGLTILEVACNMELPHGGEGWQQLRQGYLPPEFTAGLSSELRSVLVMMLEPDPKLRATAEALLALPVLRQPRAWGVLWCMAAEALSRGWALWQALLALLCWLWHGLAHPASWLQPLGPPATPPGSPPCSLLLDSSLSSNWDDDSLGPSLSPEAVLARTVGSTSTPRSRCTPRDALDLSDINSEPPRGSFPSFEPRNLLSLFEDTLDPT

Test [14] deals with STE20-like serine/threonine-protein kinase (Homo sapiens, UniProt Q9H2G2).
Chain of STE20-like serine/threonine-protein kinase (Q9H2G2 whole entry): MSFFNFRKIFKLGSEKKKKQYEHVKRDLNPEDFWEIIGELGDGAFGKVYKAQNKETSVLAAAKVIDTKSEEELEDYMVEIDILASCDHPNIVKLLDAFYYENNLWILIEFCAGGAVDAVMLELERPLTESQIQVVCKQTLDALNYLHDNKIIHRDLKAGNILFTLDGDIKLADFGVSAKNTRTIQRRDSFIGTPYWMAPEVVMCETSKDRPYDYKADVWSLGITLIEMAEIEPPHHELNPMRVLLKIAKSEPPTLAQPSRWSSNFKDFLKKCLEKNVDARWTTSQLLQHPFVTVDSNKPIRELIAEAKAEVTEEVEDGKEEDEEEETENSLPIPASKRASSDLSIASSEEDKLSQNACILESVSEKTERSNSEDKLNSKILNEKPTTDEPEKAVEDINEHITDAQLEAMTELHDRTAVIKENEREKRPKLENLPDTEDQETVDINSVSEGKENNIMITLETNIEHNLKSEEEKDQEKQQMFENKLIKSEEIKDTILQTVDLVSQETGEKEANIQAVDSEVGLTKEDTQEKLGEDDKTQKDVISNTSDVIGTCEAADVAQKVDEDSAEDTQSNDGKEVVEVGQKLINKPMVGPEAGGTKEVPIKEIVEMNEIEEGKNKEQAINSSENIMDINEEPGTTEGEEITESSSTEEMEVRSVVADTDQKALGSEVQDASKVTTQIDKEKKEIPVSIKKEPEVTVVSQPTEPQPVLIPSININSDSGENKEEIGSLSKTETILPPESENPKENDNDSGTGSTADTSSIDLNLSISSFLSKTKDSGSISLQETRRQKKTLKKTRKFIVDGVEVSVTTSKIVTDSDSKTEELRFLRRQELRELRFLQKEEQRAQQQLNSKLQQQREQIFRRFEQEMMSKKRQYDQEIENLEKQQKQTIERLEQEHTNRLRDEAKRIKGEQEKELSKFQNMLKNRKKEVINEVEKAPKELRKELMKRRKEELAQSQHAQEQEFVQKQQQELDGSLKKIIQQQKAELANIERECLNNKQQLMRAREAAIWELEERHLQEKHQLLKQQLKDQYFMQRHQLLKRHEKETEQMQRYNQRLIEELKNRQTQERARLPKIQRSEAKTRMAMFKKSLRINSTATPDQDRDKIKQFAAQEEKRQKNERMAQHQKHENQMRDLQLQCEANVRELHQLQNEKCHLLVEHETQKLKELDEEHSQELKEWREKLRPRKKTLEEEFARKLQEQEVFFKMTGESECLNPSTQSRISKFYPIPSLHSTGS
In test [15] the target is Proto-oncogene tyrosine-protein kinase Src (Homo sapiens, UniProt P12931).
Chain of Proto-oncogene tyrosine-protein kinase Src (P12931 2-536 limits assumed): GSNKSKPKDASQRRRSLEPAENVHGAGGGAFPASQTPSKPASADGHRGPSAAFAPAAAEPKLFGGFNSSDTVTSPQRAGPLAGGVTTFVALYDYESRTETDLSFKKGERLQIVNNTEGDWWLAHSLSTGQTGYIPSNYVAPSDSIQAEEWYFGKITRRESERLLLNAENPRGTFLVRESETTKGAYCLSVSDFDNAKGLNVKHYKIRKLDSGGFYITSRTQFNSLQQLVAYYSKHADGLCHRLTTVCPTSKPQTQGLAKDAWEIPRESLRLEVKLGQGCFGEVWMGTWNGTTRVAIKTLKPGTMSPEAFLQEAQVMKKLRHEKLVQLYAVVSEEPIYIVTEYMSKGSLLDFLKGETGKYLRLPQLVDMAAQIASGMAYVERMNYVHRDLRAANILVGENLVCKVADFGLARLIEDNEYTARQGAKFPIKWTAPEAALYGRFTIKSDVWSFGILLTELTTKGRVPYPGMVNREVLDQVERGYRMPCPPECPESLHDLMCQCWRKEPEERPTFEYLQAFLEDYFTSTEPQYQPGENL
Test [16] addresses T3, Casein kinase I isoform epsilon. This is another data set of the same source.
The target of test [17] is Tyrosine-protein kinase ABL1 (Homo sapiens, UniProt P00519).
The target in test [18] is Tyrosine-protein kinase ABL1 (Homo sapiens, UniProt P00519, H396P).
Test [19] concerns the target Tyrosine-protein kinase ABL1 (Homo sapiens, UniProt P00519, Y253F).
Test [20] addresses Tyrosine-protein kinase ABL2 (Homo sapiens, UniProt P42684).
Test [21] deals with Tyrosine-protein kinase Lck (Homo sapiens, UniProt P06239).

T3 sequence (P49674 whole entry, canonical isoform): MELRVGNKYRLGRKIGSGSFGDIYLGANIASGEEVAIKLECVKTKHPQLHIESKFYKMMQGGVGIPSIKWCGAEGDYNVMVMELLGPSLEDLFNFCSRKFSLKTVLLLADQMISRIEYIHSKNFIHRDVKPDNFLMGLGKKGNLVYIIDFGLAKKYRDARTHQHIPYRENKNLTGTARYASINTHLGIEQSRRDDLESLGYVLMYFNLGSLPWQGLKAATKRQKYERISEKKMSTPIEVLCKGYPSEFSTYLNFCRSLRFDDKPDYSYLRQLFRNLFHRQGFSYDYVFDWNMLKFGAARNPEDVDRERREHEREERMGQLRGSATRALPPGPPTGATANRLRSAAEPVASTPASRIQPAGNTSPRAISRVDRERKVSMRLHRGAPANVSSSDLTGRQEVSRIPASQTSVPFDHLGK
Chain of Tyrosine-protein kinase FRK (P42685 whole entry): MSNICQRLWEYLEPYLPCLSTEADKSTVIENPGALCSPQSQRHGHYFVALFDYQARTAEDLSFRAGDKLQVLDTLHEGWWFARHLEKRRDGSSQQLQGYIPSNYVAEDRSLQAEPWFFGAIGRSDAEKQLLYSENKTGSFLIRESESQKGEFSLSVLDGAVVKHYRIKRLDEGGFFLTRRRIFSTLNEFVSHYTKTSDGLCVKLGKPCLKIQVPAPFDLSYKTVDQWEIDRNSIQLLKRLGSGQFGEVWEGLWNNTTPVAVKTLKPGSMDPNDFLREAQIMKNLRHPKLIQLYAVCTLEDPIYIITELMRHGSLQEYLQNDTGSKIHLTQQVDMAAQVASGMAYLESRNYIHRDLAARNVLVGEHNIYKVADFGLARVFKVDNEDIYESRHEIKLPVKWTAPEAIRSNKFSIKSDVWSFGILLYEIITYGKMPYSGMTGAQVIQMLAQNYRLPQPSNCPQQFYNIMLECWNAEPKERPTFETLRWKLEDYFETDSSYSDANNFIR
Chain of Tyrosine-protein kinase ABL2 (P42684 whole entry): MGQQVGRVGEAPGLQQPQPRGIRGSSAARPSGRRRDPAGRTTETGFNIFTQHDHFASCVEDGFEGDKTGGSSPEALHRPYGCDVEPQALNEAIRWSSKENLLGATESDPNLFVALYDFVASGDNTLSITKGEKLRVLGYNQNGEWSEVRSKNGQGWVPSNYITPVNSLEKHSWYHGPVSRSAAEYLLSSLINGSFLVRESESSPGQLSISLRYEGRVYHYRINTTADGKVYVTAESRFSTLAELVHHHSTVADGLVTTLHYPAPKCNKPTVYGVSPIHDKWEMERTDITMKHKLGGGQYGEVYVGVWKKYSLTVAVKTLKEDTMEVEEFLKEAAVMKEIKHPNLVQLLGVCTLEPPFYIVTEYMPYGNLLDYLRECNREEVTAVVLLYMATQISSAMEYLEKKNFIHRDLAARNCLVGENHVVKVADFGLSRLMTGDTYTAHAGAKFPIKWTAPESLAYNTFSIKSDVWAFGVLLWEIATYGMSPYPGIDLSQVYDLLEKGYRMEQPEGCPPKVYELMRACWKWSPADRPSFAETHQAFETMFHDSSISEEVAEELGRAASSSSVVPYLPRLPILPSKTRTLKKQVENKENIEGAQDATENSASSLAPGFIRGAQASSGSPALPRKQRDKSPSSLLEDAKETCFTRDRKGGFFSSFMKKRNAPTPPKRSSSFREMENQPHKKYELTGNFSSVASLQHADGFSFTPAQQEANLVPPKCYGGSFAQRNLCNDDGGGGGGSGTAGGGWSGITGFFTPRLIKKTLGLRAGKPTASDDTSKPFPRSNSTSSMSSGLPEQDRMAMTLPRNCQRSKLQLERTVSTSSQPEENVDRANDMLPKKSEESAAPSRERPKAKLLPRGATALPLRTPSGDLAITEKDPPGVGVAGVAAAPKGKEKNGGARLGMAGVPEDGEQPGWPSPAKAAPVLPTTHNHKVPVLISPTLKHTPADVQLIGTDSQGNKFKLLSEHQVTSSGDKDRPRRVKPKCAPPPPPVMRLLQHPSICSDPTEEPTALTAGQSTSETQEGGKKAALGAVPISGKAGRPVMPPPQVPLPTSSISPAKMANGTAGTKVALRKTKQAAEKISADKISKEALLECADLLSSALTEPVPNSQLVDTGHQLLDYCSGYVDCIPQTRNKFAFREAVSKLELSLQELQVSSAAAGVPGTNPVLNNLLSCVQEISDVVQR

Turning to `C#Cc1cccc(Nc2ncnc3cc(OCCOC)c(OCCOC)cc23)c1` [ERLOTINIB], the Kd result in [1], in [2], in test [3], in [4], in test [5] and in [6] was “Not Active” throughout. In addition, the Kd result in test [7], in [8], in [9], in test [10], in test [11] and in [12] was “Not Active” throughout. Besides, the Kd entry in test [13] is given as “Not Active”.
Regarding `Cc1ccc(NC(=O)c2ccc(CN3CCN(C)CC3)cc2)cc1Nc1nccc(-c2cccnc2)n1` [IMATINIB], the Kd result in test [1], in test [2], in test [14], in test [4], in test [9] and in [10] was “Not Active” throughout. Also, the dissociation constant (Kd) entry in test [11], in test [12] and in test [13] was “Not Active” in each case.
Turning to `O=c1ncn2nc(Sc3ccc(F)cc3F)ccc2c1-c1c(Cl)cccc1Cl` [NEFLAMAPIMOD], the Kd result in [1], in test [2], in [3], in [14], in [6] and in test [7] was “Not Active” throughout. For the same compound, the Kd entry in [8], in [9], in test [10], in test [11], in [12] and in test [13] was “Not Active” throughout.
In the case of `CCOc1cc2ncc(C#N)c(Nc3ccc(F)c(Cl)c3)c2cc1NC(=O)/C=C/CN(C)C` [PELITINIB], the equilibrium dissociation constant (Kd) in test [15] (read-out: Kd) was 120 nM; in test [16], 97 nM; in [2], “Not Active”; in test [6], “Not Active”; in test [7], “Not Active”; in test [8] it was “Not Active”. Moreover, the dissociation constant Kd result in test [10], in [11] and in test [12] was “Not Active” in each case.
For `C[S+]([O-])c1ccc(-c2nc(-c3ccc(F)cc3)c(-c3ccncc3)[nH]2)cc1` (stereo not drawn) [SB-203580], the Kd result in test [17], in test [18], in test [19], in [15], in test [3] and in test [4] was “Not Active” each time. For the same compound, the dissociation constant (Kd) entry in test [7], in test [20], in test [10], in [11], in test [12] and in test [21] was “Not Active” each time. The dissociation constant (Kd) result in [13] is listed as “Not Active”.
Consider `CC[C@H](CO)Nc1nc(NCc2ccccc2)c2ncn(C(C)C)c2n1` [SELICICLIB], for which the Kd result in test [17], in [18], in test [19], in [15], in test [1] and in test [2] was “Not Active” in each case. Besides, the Kd result in [14], in test [4], in test [5], in [6], in test [8] and in test [20] was “Not Active” throughout. For the same compound, the Kd result in [10], in test [11], in [12], in test [21] and in test [13] was “Not Active” throughout.
Turning to `Oc1c2ccccc2c2c3c(cccc13)N=N2` [SP-600125], the equilibrium dissociation constant (Kd) entry is “Not Active” in test [17]; “Not Active” in test [18]; “Not Active” in test [19]; “Not Active” in test [15]; 3100 nM in [16]; “Not Active” in [4]. For the same compound, the dissociation constant Kd result in [5], in [20], in [12], in [21] and in [13] was “Not Active” throughout.
For `COc1cc2c(N3CCN(C(=O)Nc4ccc(OC(C)C)cc4)CC3)ncnc2cc1OCCCN1CCCCC1` [TANDUTINIB], the Kd entry in [17], in test [18], in test [19], in test [15], in [1] and in [2] was “Not Active” in each case. Also, the dissociation constant (Kd) result in [3], in [4], in test [5], in test [6], in [7] and in test [8] was “Not Active” in each case. Further, the dissociation constant (Kd) result in [20], in [9], in [10], in test [11], in [12] and in [21] was “Not Active” each time. Also, in [13], the Kd result is listed as “Not Active”.

Usually Kd stands for a measure of binding affinity in units of concentration.
